In ChEMBL document CHEMBL1134463 (2001):
Activity calls are given as the source filed them. The calls are words filed in the database; no cut-off is given here.

Experiments:
[1] = system: Neuronal acetylcholine receptor alpha4/beta2 (Rattus norvegicus); assay: Agonistic activity against rat Nicotinic acetylcholine receptor alpha4-beta2 expressed in Xenopus oocytes; details: Oocyte
[2] = molecular target: Neuronal acetylcholine receptor subunit alpha-7 (Rattus norvegicus) (UniProt Q05941); assay: Agonistic activity against rat nicotinic acetylcholine receptor alpha-7 expressed in Xenopus oocytes; format: functional, cell-based; details: Oocyte
[3] = system: Neuronal acetylcholine receptor alpha3/beta4 (Rattus norvegicus); assay: Agonistic activity against Alpha3 beta-4 Nicotinic receptor from Xenopus oocytes expressing recombinant nAChR from rat; details: Oocyte
Rattus norvegicus = organism: Rattus norvegicus; assay: Agonistic activity against Rat muscle Nicotinic Receptor; format: functional
[4] = molecular target: Neuronal acetylcholine receptor subunit alpha-7 (Rattus norvegicus) (UniProt Q05941); assay: Agonistic activity against rat nicotinic acetylcholine receptor alpha-7 expressed in Xenopus oocytes; NA=inactive; format: functional, cell-based; details: Oocyte
[5] = molecular target: T1, Neuronal acetylcholine receptor; alpha3/beta4 (Homo sapiens) (UniProt P30926+P32297); assay: Agonistic activity against rat Alpha3 beta-4 Nicotinic Receptor expressed in Xenopus oocytes; NA=inactive; format: functional, cell-based; details: Oocyte
[6] = molecular target: Neuronal acetylcholine receptor; alpha4/beta2 (Homo sapiens) (UniProt P17787+P43681); assay: Agonistic activity against rat Nicotinic acetylcholine receptor alpha4-beta2 expressed in Xenopus oocytes; NA=inactive; format: functional, cell-based; details: Oocyte
[7] = molecular target: T1, Neuronal acetylcholine receptor; alpha3/beta4 (Homo sapiens); assay: Agonistic activity against Alpha3 beta4 Nicotinic receptor from Xenopus oocytes expressing recombinant nAChR from rat; NA=inactive; format: functional, cell-based; details: Oocyte
[8] = molecular target: T1, Neuronal acetylcholine receptor; alpha3/beta4 (Homo sapiens); assay: Agonistic activity against rat Alpha3 beta-4 Nicotinic Receptor expressed in Xenopus oocytes; format: functional, cell-based; details: Oocyte

Sequence of Neuronal acetylcholine receptor subunit alpha-7 (Rattus norvegicus) (Q05941 whole entry): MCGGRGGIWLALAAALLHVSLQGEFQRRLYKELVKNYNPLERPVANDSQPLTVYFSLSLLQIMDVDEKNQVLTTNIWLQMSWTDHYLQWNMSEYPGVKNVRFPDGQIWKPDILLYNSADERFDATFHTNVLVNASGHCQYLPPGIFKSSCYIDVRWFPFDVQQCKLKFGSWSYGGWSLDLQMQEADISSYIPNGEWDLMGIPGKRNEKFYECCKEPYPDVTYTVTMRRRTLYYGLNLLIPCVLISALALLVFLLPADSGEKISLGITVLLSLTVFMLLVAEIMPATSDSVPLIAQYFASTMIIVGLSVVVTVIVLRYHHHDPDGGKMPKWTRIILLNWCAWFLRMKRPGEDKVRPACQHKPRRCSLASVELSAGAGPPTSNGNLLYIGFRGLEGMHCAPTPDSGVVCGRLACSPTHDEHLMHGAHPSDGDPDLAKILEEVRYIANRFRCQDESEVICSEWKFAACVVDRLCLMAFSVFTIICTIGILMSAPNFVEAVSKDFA

With `CN1C2CC[C@@H]1CC2c1ccnnc1` (stereo not given in full) the Activity [1] was 0.013 µM, the Activity [2] was 25 µM and the Activity [3] was 0.32 µM. The Activity (Rattus norvegicus) was 0.2 µM.

With `CCOC(=O)N1C2CC[C@@H]1CC2c1cc(Cl)nnc1Cl` (stereo not given in full) the Activity [4] was “inactive”, the Activity [5] was “inactive” and the Activity [6] was “inactive”.

`CC(=O)OCC[N+](C)(C)C` [ACETYLCHOLINE] showed an Activity [2] of 50 µM and an Activity (Rattus norvegicus) of 0.1 µM.

With `FC(F)(F)c1cc(C2CC3CCC2N3)c(C(F)(F)F)nn1` (stereo not given) the Activity [4] was “inactive”, the Activity [7] was “inactive” and the Activity [6] was “inactive”.

`c1cc(C2CC3CCC2N3)cnn1` (stereo not given) was tested, and the Activity [1] was 0.02 µM, the Activity [2] was 40 µM and the Activity [3] was 0.16 µM. It also gave an Activity (Rattus norvegicus) of 0.16 µM.

Compound `CN1CCC[C@H]1c1cccnc1.O=C(O)C(O)C(O)C(=O)O.O=C(O)C(O)C(O)C(=O)O` has an Activity [2] of 12.6 µM and an Activity (Rattus norvegicus) of 6.3 µM.

`Clc1ccc(C2CC3CCC2N3)cn1` (racemic) [EPIBATIDINE] was tested, and the Activity [8] was 0.005 µM, the Activity [2] was 0.5 µM and the Activity (Rattus norvegicus) was 0.03 µM.

With `CCOC(=O)N1C2CC[C@@H]1CC2c1ccnnc1` (stereo not given in full) the Activity [4] was “inactive”, the Activity [1] was > 100 µM and the Activity [7] was “inactive”. For the same compound, the Activity (Rattus norvegicus) was >100 µM.
